Values of other authors as cited in patent publication US20140037713A1, “TRANSDERMAL COMPOSITIONS FOR ANTI-CHOLINERGIC AGENTS” (ANTARES PHARMA IPL, AG, priority 2012, published 2014).

Settings: Ref. 2

- Dissociation const. (pKa): 8.04
SMILES: CCN(CC)CC#CCOC(=O)C(O)(c1ccccc1)C1CCCCC1 (racemic) [Oxybutynin, d,l (racemic) 4-diethylamino-2-butynyl phenylcyclohexylglycolate]
